Results: patent US20080096894A1, “Anti-Bacterial Compounds” (ASTON UNIVERSITY, priority 2005, published 2008)
Converted amounts (≈) assume the structure as drawn. Read-outs that look alike come from different tables or passages of the source. Each block holds one compound with its values, some of them ahead of it.

How the values were obtained:
[1] = tested on: human mononuclear leucocytes (MNL, white blood cells); assay: direct leucocyte toxicity, tryptan blue exclusion, 18 hours; type: cell-based
Description: The in vitro assay used human mononuclear leucocytes (MNL, white blood cells) which were incubated with the test compound for 18 hours and cell death determined by tryptan blue exclusion (tryptan blue is a dye, which stains dead cells, whilst living cells extrude it).
The toxicity of 4PYcq and the aldehyde cq and pyridine-4-carboxamidrazone precursors were assessed using the same in vitro assay with human mononuclear leucocytes as that described above. The toxicity of related compounds, 2-hydroxybenzylidene-pyridine-2-carboxamidrazone 4PYbw and benzylidenepyridine-2-carboxamidrazone 4PYaa were also examined.

[2] = tested on: S. aureus; assay: MIC, agar dilution, multipoint inoculator; type: cell-based, Staphylococcus aureus; conditions: upper value of MIC reading
Description: (§1) This activity was measured using a multipoint inoculator method as follows. The MIC for each compound was measured using an agar dilution method (Onda, H., et al., Int. J. Antimicrob. Agents. 18, 263 (2001)) (Mueller Hinton agar) by means of a multipoint inoculator delivering 10^4 colony forming units per spot.

[3] = tested on: E. faecium; assay: MIC, agar dilution, multipoint inoculator; type: cell-based, Enterococcus faecium; conditions: Enterococcus faecium, upper value of MIC reading, read-out: MIC
Description: as §1

[4] = tested on: MRSA; assay: MIC, agar dilution, multipoint inoculator; type: cell-based, methicillin-resistant Staphylococcus aureus
Description: as §1
‘Staph’ refers to the reference strain of S. aureus (NCTC 6571). A tick in the MRSA column refers to a positive zone against MRSA strain 96-7474, and the MIC range (in μg/ml) which follows is that found against a panel of ten MRSA strains. Where MIC values are given for MRSA, these are stated as a range of values, as testing was carried out on a panel of clinical isolates.

[5] = tested on: S. epidemisis; assay: MIC, agar dilution, multipoint inoculator; type: cell-based, Staphylococcus epidermidis; conditions: upper value of MIC reading
Description: as §1

[6] = tested on: E. faecalis; assay: MIC, agar dilution, multipoint inoculator; type: cell-based; conditions: upper value of MIC reading
Description: as §1

[7] = tested on: S. haemolyticus; assay: MIC, agar dilution, multipoint inoculator; type: cell-based; conditions: S. haemolyticus Isolate 1, upper value of MIC reading
Description: as §1

[8] = Staphylococcus aureus, 18 h, S. aureus Cowan 1, read-out: MIC
[9] = Staphylococcus aureus, NCTC6571, 18 h, S. aureus NCTC 6571, read-out: MIC
[10] = Staphylococcus aureus, NCTC10788, 18 h, S. aureus NCTC 10788, read-out: MIC
[11] = Staphylococcus aureus, 18 h, MRSA Isolate 1, upper value of MIC reading, read-out: MIC
[12] = Staphylococcus aureus, 18 h, MRSA Isolate 2, upper value of MIC reading, read-out: MIC
[13] = Staphylococcus aureus, 18 h, MRSA Isolate 3, upper value of MIC reading, read-out: MIC
[14] = Staphylococcus aureus, 18 h, MRSA Isolate 4, upper value of MIC reading, read-out: MIC
[15] = Staphylococcus aureus, 18 h, MRSA Isolate 5, upper value of MIC reading, read-out: MIC
[16] = Staphylococcus aureus, 18 h, MRSA Isolate 6, upper value of MIC reading, read-out: MIC
[17] = Staphylococcus aureus, 18 h, MRSA Isolate 7, upper value of MIC reading, read-out: MIC
[18] = Staphylococcus aureus, 18 h, MRSA Isolate 8, upper value of MIC reading, read-out: MIC
[19] = Staphylococcus aureus, 18 h, MRSA Isolate 9, upper value of MIC reading, read-out: MIC
[20] = Staphylococcus aureus, 18 h, MRSA Isolate 10, upper value of MIC reading, read-out: MIC
[21] = Staphylococcus aureus, MRSA, 18 h, panel of ten MRSA strains (clinical isolates), read-out: MRSA MIC range
[22] = Staphylococcus epidermidis, 18 h, S. epidemisis Isolate 1, read-out: MIC
[23] = Staphylococcus epidermidis, NCTC11047, 18 h, S. epidemisis NCTC 11047, read-out: MIC
[24] = Staphylococcus haemolyticus, 18 h, read-out: MIC
[25] = MRSA Isolate 2, upper value of MIC reading, in µg/mL
[26] = MRSA Isolate 3, upper value of MIC reading, in µg/mL
[27] = MRSA Isolate 4, upper value of MIC reading, in µg/mL

SMILES: N=C(NN=Cc1ccccc1)c1ccccn1 [Compound 4PYaa, benzylidenepyridine-2-carboxamidrazone]
direct MNL toxicity (in words) [1]: only mildly toxic in comparison

MIC [2, 8]: 64 µg/mL (≈ 217 µM) | MIC [2, 9]: 64 µg/mL (≈ 217 µM) | MIC [2, 10]: 64 µg/mL (≈ 217 µM) | MIC ([3]; 18 h, E. faecium ACTCC 10541): 64 µg/mL (≈ 217 µM) | MIC ([3]; NCTC7171, 18 h, E. faecium NCTC 7171): 64 µg/mL (≈ 217 µM) | MIC [4, 11]: 64 µg/mL (≈ 217 µM) | MIC [4, 12]: 64 µg/mL (≈ 217 µM) | MIC [4, 13]: 64 µg/mL (≈ 217 µM) | MIC [4, 14]: 64 µg/mL (≈ 217 µM) | MIC [4, 15]: 64 µg/mL (≈ 217 µM) | MIC [4, 16]: 64 µg/mL (≈ 217 µM) | MIC [4, 17]: 64 µg/mL (≈ 217 µM) | MIC [4, 18]: 64 µg/mL (≈ 217 µM) | MIC [4, 19]: 64 µg/mL (≈ 217 µM) | MIC [4, 20]: 64 µg/mL (≈ 217 µM) | MIC [4, 21]: 32 to 64 µg/mL (≈ 109 to 217 µM) | MIC [5, 22]: 64 µg/mL (≈ 217 µM) | MIC [5, 23]: 64 µg/mL (≈ 217 µM) | MIC ([6]; Enterococcus faecalis, 18 h, E. faecalis EBH1, read-out: MIC): 64 µg/mL (≈ 217 µM) | MIC ([6]; Enterococcus faecalis, 18 h, E. faecalis Isolate 1, read-out: MIC): 64 µg/mL (≈ 217 µM) | MIC ([6]; Enterococcus faecalis, 18 h, E. faecalis Isolate 2, read-out: MIC): 64 µg/mL (≈ 217 µM) | MIC ([6]; Enterococcus faecalis, 18 h, E. faecalis Isolate 3, read-out: MIC): 64 µg/mL (≈ 217 µM) | MIC ([6]; Enterococcus faecalis, 18 h, E. faecalis Isolate 4, read-out: MIC): 128 µg/mL (≈ 435 µM) | MIC ([6]; Enterococcus faecalis, 18 h, E. faecalis Isolate 5, read-out: MIC): 128 µg/mL (≈ 435 µM) | MIC ([6]; Enterococcus faecalis, NCTC5957, 18 h, E. faecalis NCTC 5957, read-out: MIC): 64 µg/mL (≈ 217 µM)
SMILES: CCC(C)(C)c1ccc(/C=N/N=C(\N)c2ccncc2)cc1 [Compound 4PYaf, N^1-[4-(1,1-dimethylpropyl)benzylidene]-pyridine-4-carboxamidrazone]
MIC [7, 24]: 64 µg/mL (≈ 217 µM)

SMILES: N=C(NN=Cc1ccccc1O)c1ccccn1 [Compound 4PYbw, 2-hydroxybenzylidene-pyridine-2-carboxamidrazone]
direct MNL toxicity (in words) [1]: only mildly toxic in comparison

MIC [2, 8]: 8 µg/mL (≈ 21.8 µM) | MIC [2, 9]: 128 µg/mL (≈ 349 µM) | MIC [2, 10]: 16 µg/mL (≈ 43.6 µM) | MIC [4, 11]: 16 µg/mL (≈ 43.6 µM) | MIC [4, 12]: 16 µg/mL (≈ 43.6 µM) | MIC [4, 13]: 16 µg/mL (≈ 43.6 µM) | MIC [4, 14]: 16 µg/mL (≈ 43.6 µM) | MIC [4, 15]: 16 µg/mL (≈ 43.6 µM) | MIC [4, 16]: 16 µg/mL (≈ 43.6 µM) | MIC [4, 17]: 64 µg/mL (≈ 174 µM) | MIC [4, 18]: 32 µg/mL (≈ 87.2 µM) | MIC [4, 19]: 16 µg/mL (≈ 43.6 µM) | MIC [4, 20]: 16 µg/mL (≈ 43.6 µM) | MIC [4, 21]: 8 to 64 µg/mL (≈ 21.8 to 174 µM) | MIC [5, 22]: 256 µg/mL (≈ 698 µM) | MIC [5, 23]: 256 µg/mL (≈ 698 µM)
SMILES: N/C(=N\N=C\c1ccccc1Sc1ccc(Cl)cc1)c1ccncc1 [Compound 4PYeh, N^1-[2-(4-chlorothiophenyl)benzylidene]-pyridine-4-carboxamidrazone]
MIC [7, 24]: 256 µg/mL (≈ 698 µM)

SMILES: NC(=NN=Cc1ccc(O)c(O)c1O)c1cnccn1 [PZcb]
MIC ([2]; S. aureus Cowan 1): 256 µg/mL (≈ 937 µM) | MIC ([2]; S. aureus NCTC 6571): 256 µg/mL (≈ 937 µM) | MIC ([2]; S. aureus NCTC 10788): 256 µg/mL (≈ 937 µM) | MIC ([4]; MRSA Isolate 1, upper value of MIC reading, in µg/mL): 256 | MIC [4, 25]: 256 | MIC [4, 26]: 256 | MIC [4, 27]: 256 | MIC ([4]; MRSA Isolate 5, upper value of MIC reading, in µg/mL): 256 | MIC ([4]; MRSA Isolate 6, upper value of MIC reading, in µg/mL): 256 | MIC ([4]; MRSA Isolate 7, upper value of MIC reading, in µg/mL): 256 | MIC ([4]; MRSA Isolate 8, upper value of MIC reading, in µg/mL): 256 | MIC ([4]; MRSA Isolate 9, upper value of MIC reading, in µg/mL): 256 | MIC ([4]; MRSA Isolate 10, upper value of MIC reading, in µg/mL): 256 | MRSA MIC range ([4]; panel of ten MRSA strains (clinical isolates)): 128 to 256 µg/mL | MIC ([5]; S. epidemisis NCTC 11047): 256 µg/mL (≈ 937 µM) | MIC ([6]; E. faecalis Isolate 2): 256 µg/mL (≈ 937 µM) | MIC ([6]; E. faecalis Isolate 3): 256 µg/mL (≈ 937 µM) | MIC [7]: 256 µg/mL (≈ 937 µM)

SMILES: NC(=NN=Cc1cc(Br)cc([N+](=O)[O-])c1O)c1ccc2ccccc2n1 [QNcl]
MIC ([2]; S. aureus NCTC 6571): > 256 µg/mL | MIC [4, 25]: 64 | MIC [4, 26]: 64 | MIC [4, 27]: 64 | MIC ([5]; S. epidemisis NCTC 11047): 256 µg/mL (≈ 618 µM) | MIC ([6]; E. faecalis Isolate 2): 256 µg/mL (≈ 618 µM) | MIC ([6]; E. faecalis Isolate 3): 256 µg/mL (≈ 618 µM) | MIC [7]: 256 µg/mL (≈ 618 µM)

SMILES: CC(C)(C)c1ccc(C=O)cc1 [ae]
direct MNL toxicity (in words) [1]: most toxic | % Leucocyte Death ([1]; human, 18 h, 1 mM): 24.1 ± 9.6%

SMILES: CCC(C)(C)c1ccc(C=O)cc1 [af]
% Leucocyte Death ([1]; human, 18 h, 1 mM): 5.5 ± 3.0%

SMILES: O=Cc1cccc2ccccc12 [al]
% Leucocyte Death ([1]; 1.0 mM, 18 hours): 9.2 ± 4.7%
